Test results taken from patent publication US7524886B2, “L-(−)-moprolol L-(+)-tartrate” (Aziende Chimiche Riunite Angelini Francesco A.C.R.A.F. …, priority 2004, dated 2009).

Test system: rabbit eye (conjunctiva, iris, cornea)
Test: Ocular tolerability (Draize) in rabbits
Type: in vivo, rabbits (New Zealand White)
Description: Two aqueous solutions were used.
The first contained 1% by weight of L-(−)-moprolol hydrochloride (corresponding to 0.87% by weight of L-(−)-moprolol). The second contained 1.14% by weight of L-(−)-moprolol L-(+)-tartrate (2:1) (corresponding to 0.87% by weight of L-(−)-moprolol).
12 male rabbits (New Zealand White) with an average weight of 2 kg and an average age of ten months were used, divided into two groups of six rabbits each. The first group was treated with 0.1 ml of the first test solution three times a day for fifteen days. The second group was treated with 0.1 ml of the second test solution three times a day for fifteen days.
The tolerability was evaluated according to J. Draize et al., Pharmacol. Exp. Ther., 83, 377-390 (1944).

[1] = Draize score, male rabbits, 0.1 ml aqueous solution (0.87% by weight L-(−)-moprolol) three times a day for fifteen days

Row | Compound | Conjunctiva Lachrymation [1] | Conjunctiva Reddening [1] | Conjunctiva Swelling [1] | Cornea Area of the cornea affected by opacity [1] | Cornea Opacity [1] | Iris [1] | local tolerability (rabbit, in vivo) | Total Score (sum of Draize scores, male rabbits, 0.1 ml aqueous solution (0.87% by weight L-(−)-moprolol) three times a day for fifteen days) | Conjunctiva Lachrymation (rabbit, in vivo) | Conjunctiva Reddening (rabbit, in vivo) | Conjunctiva Swelling (rabbit, in vivo) | Cornea Area of the cornea affected by opacity (rabbit, in vivo) | Cornea Opacity (rabbit, in vivo) | Iris (rabbit, in vivo) | Total Score (rabbit, in vivo)
1 | COc1ccccc1OC[C@@H](O)CNC(C)C.COc1ccccc1OC[C@@H](O)CNC(C)C.O=C(O)C(O)C(O)C(=O)O [L-(−)-moprolol L-(+)-tartrate, L-(−)-moprolol L-(+)-tartrate (2:1)] | 1 | 0 | 0 | 0 | 0 | 0 | better local tolerability | 1 | – | – | – | – | – | – | –
2 | COc1ccccc1OC[C@@H](O)CNC(C)C.Cl [L-(−)-moprolol hydrochloride, reference compound] | – | – | – | – | – | – | – | – | 2 | 1 | 2 | 0 | 0 | 0 | 5
